System: hepatocytes
Assay: Seq-Well scRNA-Seq of hepatocytes after APAP overdose (signature scores, DEG vs untreated)
Type: in vivo, mouse
Settings: APAP vs UT

## CC(=O)Nc1ccc(O)cc1 [APAP, acetaminophen]
Composite DEG
  Tm7sf2 logFC: −0.3164
  Tmbim4 logFC: 0.3227
  Tmbim6 logFC: 0.3387
  Tmed5 logFC: 0.4016
  Tmem14c logFC: −0.3685
  Tmem37 logFC: −0.2822
  Tmem56 logFC: 1
  Tmem147 logFC: −0.2838
  Tmem160 logFC: −0.339
  Tmem205 logFC: −0.7747
  Tmem243 logFC: −0.3791
  Tmem258 logFC: −0.2769
  Tmprss6 logFC: −0.2802
  Tmsb4x logFC: 0.7806
  Tnks2 logFC: 0.3176
  Tns1 logFC: 0.4349
  Tob1 logFC: −0.3387
  Tomm70a logFC: 0.2688
  Tpr logFC: 0.4409
  Trf logFC: −0.2619
  Trib1 logFC: 0.3317
  Trp53inp1 logFC: 1.008
  Tsc22d1 logFC: −0.2997
  Tspan31 logFC: −0.2959
  Tspo logFC: −0.3157
  Ttc36 logFC: −0.6606
  Tubb6 logFC: 0.5767
  Txn1 logFC: −0.3091
  Txndc5 logFC: 0.2901
  Txnrd1 logFC: 1.444
  Tyrobp logFC: 0.4666
  Ubb logFC: −0.275
  Ubc logFC: −0.6618
  Ubl5 logFC: −0.3033
  Ubr4 logFC: 0.3301
  Ugp2 logFC: 0.2973
  Ugt2b1 logFC: −0.7768
  Ugt2b5 logFC: −0.6034
  Ugt2b36 logFC: −0.5834
  Uhrf1bp1l logFC: 0.4198
  Uqcc2 logFC: −0.3269
  Uqcrb logFC: −0.4084
  Uqcrq logFC: −0.8867
  Urah logFC: −0.7641
  Uroc1 logFC: 0.4162
  Vcam1 logFC: 0.4574
  Vnn3 logFC: 0.2765
  Vtn logFC: 0.3338
  Wbp1l logFC: 0.5535
  Wdr26 logFC: 0.4325
  Wdr43 logFC: 0.3438
  Xiap logFC: 0.2602
  Yap1 logFC: 0.3281
  Zbtb20 logFC: 0.4715
  Zfp91 logFC: 0.3707
  Zyx logFC: 0.2983
  mmu-mir-6240 logFC: 1.101
  mt-Co3 logFC: −1.167
A24logFC
  0610007P14Rik logFC: −0.257
  1110058L19Rik logFC: −0.2581
  4931406C07Rik logFC: −0.2544
  4932438A13Rik logFC: 0.2879
  2810428115Rik logFC: −0.2631
  Abcb11 logFC: −0.2618
  Abcc2 logFC: 0.2897
  Abce1 logFC: 0.28
  Abcf1 logFC: 0.3032
  Abcg2 logFC: −0.2809
  Acaa1a logFC: −0.3018
  Acat3 logFC: −0.3115
  Acot13 logFC: −0.2886
  Acsm5 logFC: −0.2614
  Actr3 logFC: 0.276
  Aes logFC: −0.2642
  Anxa5 logFC: 0.3654
  Apof logFC: −0.2522
  Arhgdia logFC: 0.2563
  Ash11 logFC: 0.2657
  Atf4 logFC: 0.3411
  Bc1af1 logFC: 0.2685
  Bdhl logFC: −0.2936
  C6 logFC: −0.267
  C1d logFC: −0.2553
  Cap1 logFC: 0.3251
  Ccdc50 logFC: 0.2858
  Ccnl1 logFC: 0.2566
  Cdh1 logFC: 0.2697
  Cep85 logFC: 0.2839
  Chmp4b logFC: 0.3002
  Chuk logFC: 0.3724
  Clic4 logFC: 0.2998
  Coasy logFC: −0.2534
  Commd3 logFC: −0.2656
  Csrp3 logFC: −0.294
  Ctnnd1 logFC: 0.2518
  Ctsc logFC: 0.361
  Cu11 logFC: 0.2592
  Cu13 logFC: 0.2788
  Cybb logFC: 0.3778
  Dcaf11 logFC: −0.2817
  Ddost logFC: 0.2504
  Ddx3y logFC: 0.3395
  Deb1 logFC: −0.267
  Dera logFC: −0.2674
  Diap1 logFC: 0.3259
  Dnaja2 logFC: 0.3723
  Dnajc5 logFC: 0.3265
  Dsp logFC: 0.2655
  Eea1 logFC: 0.2612
  Eif4a1 logFC: 0.2519
  Eif4ebp1 logFC: 0.2617
  Eifia logFC: 0.3147
  Eifib logFC: 0.2503
  Eific logFC: 0.302
  Elovl5 logFC: 0.3352
  Fam195a logFC: −0.2649
  Fasn logFC: 0.2914
  Fbxo21 logFC: −0.2631
  Ftsj3 logFC: 0.2552
  Gadd45a logFC: 0.2829
  Gars logFC: 0.2576
  Gcat logFC: −0.2587
  Gcgr logFC: −0.2576
  Gda logFC: 0.6275
  Gldc logFC: 0.2802
  Glul logFC: 0.3795
  Gm5424 logFC: 0.2698
  Gm20594 logFC: −0.36
  Gnai2 logFC: 1
  Gnas logFC: 0.2589
  Gsr logFC: 0.4128
  Gtf2a2 logFC: 0.2792
  H2-D1 logFC: 0.2865
  Hectd1 logFC: 0.308
  Herc1 logFC: 0.2562
  Herc4 logFC: 0.2675
  Hipk1 logFC: 0.2916
  Hnrnpu logFC: 0.3394
  Hpn logFC: −0.2686
  Hsbp1 logFC: −0.2867
  Iah1 logFC: −0.293
  Impad1 logFC: 0.3227
  Ivns1abp logFC: 0.3566
  Kdm5a logFC: 0.3514
  Ldlr logFC: 0.282
  Lipc logFC: −0.2548
  Magi3 logFC: 0.27
  Map3k2 logFC: 0.2518
  Mapkapk2 logFC: 0.3138
  Megf9 logFC: 0.2769
  Mgea5 logFC: 0.3263
  Mrpl11 logFC: −0.2685
  Mrpl15 logFC: −0.2912
  Mrpl20 logFC: −0.3093
  Mrpl28 logFC: −0.2699
  Mrpl34 logFC: −0.2838
  Mrpl41 logFC: −0.2674
  Mrpl42 logFC: −0.2845
  Mrps12 logFC: −0.2504
  Mvd logFC: −0.2704
  Myeov2 logFC: −0.3052
  Myo1b logFC: 0.2624
  Naa50 logFC: 0.2657
  Ndufa5 logFC: −0.252
  Nek7 logFC: 0.2911
  Net1 logFC: 0.3479
  Nploc4 logFC: 0.2918
  Nqo2 logFC: −0.2678
  Nucks1 logFC: 0.3558
  Nudt4 logFC: 0.2542
  Pa2g4 logFC: 0.2893
  Papss2 logFC: −0.2545
  Pcm1 logFC: 0.2654
  Pde3b logFC: −0.259
  Pdzd8 logFC: 0.2863
  Pet100 logFC: −0.28
  Pgls logFC: −0.2747
  Pi4k2a logFC: 0.3536
  Pkp4 logFC: 0.323
  Plbd2 logFC: 0.2649
  Plcxd2 logFC: −0.2752
  Pmpcb logFC: −0.2636
  Ppip5k2 logFC: 0.3209
  Ppm1g logFC: 0.2522
  Proc logFC: −0.2707
  Prpf19 logFC: 0.2588
  Psap logFC: 0.361
  Psma1 logFC: −0.2567
  Psma6 logFC: −0.3035
  Ptpmt1 logFC: −0.256
  Ptpn11 logFC: 0.2778
  Pvrl2 logFC: −0.2613
  Rab6a logFC: 0.3234
  Rabac1 logFC: −0.266
  Rangap1 logFC: 0.2962
  Rap1b logFC: 0.3408
  Rassf3 logFC: 0.2912
  Rbm39 logFC: 0.2657
  Riok3 logFC: 0.2916
  Rmnd5a logFC: 0.3189
  Rnf169 logFC: 0.334
  Rock1 logFC: 0.2608
